Tests used:
C57/BL6J mice = assay: In vivo plasma GLP-1 level-increasing action: plasma active GLP-1 level (ELISA) after oral administration; details: 10 mg/kg oral; for Significant difference (p < 0.05) vs control group, plasma active GLP-1 level: 30 minutes, Student's t-test; for Plasma active GLP-1 level (relative value to control group as 100), average value: blood 30 minutes after, 0.5% CMC-Na group = 100
Method in brief: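 Male C57BL/6J mice, habituated 1 week, deprived of food 5.5 h and water 2 h, then dosed orally with compound at 10 mg/kg in 0.5% CMC-Na. Vena cava blood taken 30 min later under anaesthesia, with heparin and sitagliptin added; plasma active GLP-1 by ELISA, relative to vehicle group set at 100.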

NCI-H716 cells = assay: In vitro GLP-1 secretion-accelerating action: amount of active GLP-1 secreted (ELISA); assay type: cell-based; details: 1 hour; for Significant difference (p < 0.05) vs control group, amount of active GLP-1 secreted: 10 mM, Student's t-test; for Amount of active GLP-1 secreted (relative value to control group as 100), average value: cyclic dipeptide 10 mM with 10 μM Sitagliptin phosphate, group with no cyclic dipeptide = 100
Protocol: Among the cyclic dipeptides, 92 highly water-soluble cyclic dipeptides were used in the following experiment. In each well of a Poly-L-Lysine 96-well plate, NCI-H716 cells suspended in 100 μL of a DMEM (with 10% FBS, 2 mM glutamine, and 1% antibiotics added in advance) were seeded at 0.5×10^5 cells/well, and cultured in a CO2 incubator (manufactured by ESPEC CORP.) for 48 hours. After washing with PBS(+), 100 μL of a PBS(+) solution with each cyclic dipeptide at a final concentration of 10 mM and 10 μM of Sitagliptin phosphate added therein was added to the cells. After 1 hour, the resultant solution was recovered, and the amount of active GLP-1 in the solution was measured by using the ELISA kit. In the analysis, the amount of active GLP-1 for a group with no cyclic dipeptide added was defined as 100, and relative values thereto were used.

SMILES	Significant difference (p < 0.05) vs control group, plasma active GLP-1 level (C57/BL6J mice; Table 6, Experiment 1)	Plasma active GLP-1 level (relative value to control group as 100), average value (C57/BL6J mice; Table 6, Experiment 1)	Significant difference (p < 0.05) vs control group, amount of active GLP-1 secreted (NCI-H716 cells; Table 4, Experiment 4)	Amount of active GLP-1 secreted (relative value to control group as 100), average value (NCI-H716 cells; Table 4, Experiment 4)	also measured
CSCC[C@@H]1NC(=O)[C@@H]2CCCN2C1=O [compound 18, cyclo-methionyl-proline]	Yes	138			Significant difference (p < 0.05) vs control group, amount of active GLP-1 secreted (NCI-H716 cells; Table 1, Experiment 1): Yes; Amount of active GLP-1 secreted (relative value to control group as 100), average value (NCI-H716 cells; Table 1, Experiment 1): 338
CC1NC(=O)C(CO)NC1=O (stereo not shown) [compound 25, cyclo-alanyl-serine]	Yes	158			Significant difference (p < 0.05) vs control group, amount of active GLP-1 secreted (NCI-H716 cells; Table 1, Experiment 1): Yes; Amount of active GLP-1 secreted (relative value to control group as 100), average value (NCI-H716 cells; Table 1, Experiment 1): 257
C[C@@H](O)[C@@H]1NC(=O)[C@@H]2CCCN2C1=O [compound 31, Cyclo(Pro-Thr)]	No	129			Significant difference (p < 0.05) vs control group, amount of active GLP-1 secreted (NCI-H716 cells; Table 1, Experiment 1): Yes; Amount of active GLP-1 secreted (relative value to control group as 100), average value (NCI-H716 cells; Table 1, Experiment 1): 204
C[C@@H]1NC(=O)[C@H](Cc2cnc[nH]2)NC1=O [compound 34, Cyclo(Ala-His)]	No	100			Significant difference (p < 0.05) vs control group, amount of active GLP-1 secreted (NCI-H716 cells; Table 1, Experiment 1): No; Amount of active GLP-1 secreted (relative value to control group as 100), average value (NCI-H716 cells; Table 1, Experiment 1): 211
O=C1N[C@@H](Cc2cnc[nH]2)C(=O)N2CCC[C@@H]12 [compound 37, cyclo-histidyl-proline]	Yes	62			Significant difference (p < 0.05) vs control group, amount of active GLP-1 secreted (NCI-H716 cells; Table 1, Experiment 1): No; Amount of active GLP-1 secreted (relative value to control group as 100), average value (NCI-H716 cells; Table 1, Experiment 1): 231
CC(C)C[C@@H]1NC(=O)[C@H](CCCN=C(N)N)NC1=O [compound 43, cyclo-arginyl-leucine]	Yes	138			Significant difference (p < 0.05) vs control group, amount of active GLP-1 secreted (NCI-H716 cells; Table 1, Experiment 1): Yes; Amount of active GLP-1 secreted (relative value to control group as 100), average value (NCI-H716 cells; Table 1, Experiment 1): 226
O=C(O)C[C@@H]1NC(=O)[C@@H]2CCCN2C1=O [compound 48, Cyclo(Asp-Pro)]	No	110			Significant difference (p < 0.05) vs control group, amount of active GLP-1 secreted (NCI-H716 cells; Table 2, Experiment 2): Yes; Amount of active GLP-1 secreted (relative value to control group as 100), average value (NCI-H716 cells; Table 2, Experiment 2): 199
O=C1NC(Cc2c[nH]c3ccccc23)C(=O)NC1Cc1cnc[nH]1 (stereo not shown) [compound 60, Cyclo(Trp-His)]	No	129			Significant difference (p < 0.05) vs control group, amount of active GLP-1 secreted (NCI-H716 cells; Table 2, Experiment 2): Yes; Amount of active GLP-1 secreted (relative value to control group as 100), average value (NCI-H716 cells; Table 2, Experiment 2): 260
NCCCCC1NC(=O)C(Cc2ccccc2)NC1=O (stereo not shown) [compound 63, cyclo-lysyl-phenylalanine]	Yes	206			Significant difference (p < 0.05) vs control group, amount of active GLP-1 secreted (NCI-H716 cells; Table 2, Experiment 2): Yes; Amount of active GLP-1 secreted (relative value to control group as 100), average value (NCI-H716 cells; Table 2, Experiment 2): 220
CC(O)C1NC(=O)C(C(C)O)NC1=O (stereo not shown) [compound 164, cyclo-threonyl-threonine]					Significant difference (p < 0.05) vs control group, plasma active GLP-1 level (C57/BL6J mice; Table 15, Experiment 10): Yes; Plasma active GLP-1 level (relative value to control group as 100), average value (C57/BL6J mice; Table 15, Experiment 10): 282; Significant difference (p < 0.05) vs control group, amount of active GLP-1 secreted (NCI-H716 cells; Table 3, Experiment 3): Yes; Amount of active GLP-1 secreted (relative value to control group as 100), average value (NCI-H716 cells; Table 3, Experiment 3): 162
NC(=O)CC1NC(=O)C(CC(N)=O)NC1=O (stereo not shown) [compound 173, Cyclo(Asn-Asn)]			Yes	255	Significant difference (p < 0.05) vs control group, plasma active GLP-1 level (C57/BL6J mice; Table 15, Experiment 10): No; Plasma active GLP-1 level (relative value to control group as 100), average value (C57/BL6J mice; Table 15, Experiment 10): 123
NC(=O)CCC1NC(=O)C(CC(N)=O)NC1=O (stereo not shown) [compound 174, Cyclo(Gln-Asn)]			Yes	305	Significant difference (p < 0.05) vs control group, plasma active GLP-1 level (C57/BL6J mice; Table 15, Experiment 10): No; Plasma active GLP-1 level (relative value to control group as 100), average value (C57/BL6J mice; Table 15, Experiment 10): 168
NC(=O)CCC1NC(=O)C(CCC(N)=O)NC1=O (stereo not shown) [compound 176, Cyclo(Gln-Gln)]			No	111	
CC[C@H](C)[C@@H]1NC(=O)[C@H](CCC(N)=O)NC1=O [compound 182, cyclo-glutaminyl-isoleucine]			Yes	445	Significant difference (p < 0.05) vs control group, plasma active GLP-1 level (C57/BL6J mice; Table 7, Experiment 2): Yes; Plasma active GLP-1 level (relative value to control group as 100), average value (C57/BL6J mice; Table 7, Experiment 2): 188
CSCC[C@@H]1NC(=O)[C@H](CCC(N)=O)NC1=O [compound 186, cyclo-glutaminyl-methionine]			Yes	191	
NC(=O)CCC1NC(=O)C2CCCN2C1=O (stereo not shown) [compound 188, Cyclo(Gln-Pro)]			No	132	
N=C(N)NCCC[C@@H]1NC(=O)[C@H](Cc2c[nH]c3ccccc23)NC1=O [compound 189, cyclo-tryptophanyl-arginine]			Yes	314	
O=C(O)CCC1NC(=O)C(CO)NC1=O (stereo not shown) [compound 192, cyclo-seryl-glutamic acid]			Yes		
N=C(N)NCCC[C@@H]1NC(=O)[C@H](CC(N)=O)NC1=O [compound 197, cyclo-asparaginyl-arginine]			Yes	359	
NC(=O)CC1NC(=O)C2CCCN2C1=O (stereo not shown) [compound 201, cyclo-asparaginyl-proline]			Yes	430	
N=C(N)NCCC[C@@H]1NC(=O)[C@H](CCCNC(=N)N)NC1=O [compound 212, cyclo-arginyl-arginine]			Yes	1050	
